Test results taken from US20240359037A1, “Ultrasound Method” (ACT THERAPEUTICS LTD, priority 2021, published 2024).

Tested on: subcutaneous prostate cancer model (PC3)
Assay: Tumour specific uptake of Evans Blue vs. Enhancement MI
Type: in vivo, mice
Details: Enhancement 0.5 MHz MI 0.2 compared to MI=0 (no ultrasound); 30 min after treatment
Procedure: To investigate the effect of MI variance of the US Enhancement field, tumour specific uptake of Evans Blue (EB, fluorescent dye) has been investigated in a subcutaneous prostate cancer model (PC3) in mice. Five groups with Enhancement insonation MIs of 0, 0.1, 0.2, 0.3 and 0.4 were investigated (N=3 animals per group). […] 30 min after treatment, the tumours were excised and the amount of EB was measured by spectrophotometry at 620 nm.

increase in tumour specific uptake: ~60%
Structure (SMILES): Cc1cc(-c2ccc(/N=N/c3ccc4c(S(=O)(=O)O)cc(S(=O)(=O)O)c(N)c4c3O)c(C)c2)ccc1/N=N/c1ccc2c(S(=O)(=O)O)cc(S(=O)(=O)O)c(N)c2c1O [Evans Blue]
